Results from patent publication US5770742A, “Thiophene-tryptamine derivatives” (Allelix Biopharmaceuticals Inc., priority 1996, dated 1998).
Like-named read-outs stand apart in the source and are kept apart here.

Columns and labels:
[1] = target: T1, 5-HT1Dα (Homo sapiens, UniProt P28221); assay: Binding affinity, inhibition of 3H-5-HT binding, 5-HT1Dα; conditions: 1 h, 100 nm, 60 minute at 22° C., mean of triplicate determinations
T1 construct: expressed in transfected cells
Description: (§1) Compounds of the previous examples, as well as reference compounds, were evaluated for binding affinity using cell types receptive specifically to 5-HT1Dα and 5-HT1Dβ ligands. The assay protocol generally entailed the incubation of membranes prepared from cells expressing the 1Dβ or 1Dα sub-type of 5-HT receptors, with ^3 H-5-HT. The test compound was incubated at 100 nm concentration with the radioligand and the membrane homogenates prepared from the recombinant cells. After a 60 minute incubation at 22° C., the incubation was terminated by vacuum filtration. The filters were washed with buffer and counted for radioactivity using liquid scintillation spectrometry. The affinity of the test compound for the 5-HT1Dβ or 5-HT1Dα receptor estimated by its inhibition of binding of the radioligand to the receptor. The result is expressed desciptively as percent inhibition of binding. Each value is the mean of triplicate determinations. For comparison, sumatriptan was also evaluated. The results are presented in Table 2 below, with reference to the compound numbers of Table 1 and the specific synthesis examples given above.

[2] = target: T2, 5-HT1Dβ (Homo sapiens, UniProt P28222); assay: Binding affinity, inhibition of 3H-5-HT binding, 5-HT1Dβ; conditions: 1 h, 100 nm, 60 minute at 22° C., mean of triplicate determinations
T2 construct: expressed in transfected cells
T2 sequence (P28222 whole entry): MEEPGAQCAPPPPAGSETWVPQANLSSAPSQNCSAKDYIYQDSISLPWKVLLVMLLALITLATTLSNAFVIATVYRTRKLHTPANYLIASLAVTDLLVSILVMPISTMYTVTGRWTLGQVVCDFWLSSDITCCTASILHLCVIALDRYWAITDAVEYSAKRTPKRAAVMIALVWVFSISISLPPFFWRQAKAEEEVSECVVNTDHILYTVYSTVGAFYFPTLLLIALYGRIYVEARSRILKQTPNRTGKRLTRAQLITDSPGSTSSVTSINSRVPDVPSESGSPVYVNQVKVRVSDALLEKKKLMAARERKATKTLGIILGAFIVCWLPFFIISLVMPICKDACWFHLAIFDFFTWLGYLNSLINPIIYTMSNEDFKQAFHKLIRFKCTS
Description: as §1, with “determinations.” for “determinations. For comparison, sumatriptan was also evaluated. The results are presented in Table 2 below, with reference to the compound numbers of Table 1 and the specific synthesis examples given above.”

[3] = target: T3, 5-HT1D receptor (Oryctolagus cuniculus, UniProt P49144); assay: Agonist assay, contraction of rabbit isolated saphenous vein; design: species or system rabbit (male New Zealand White)
T3 construct: Ring segments of the vein (4-5 mm in length) were cut and the endothelium gently removed; from tissue; host or cells: rabbit saphenous vein rings, endothelium removed
T3 sequence (P49144 whole entry): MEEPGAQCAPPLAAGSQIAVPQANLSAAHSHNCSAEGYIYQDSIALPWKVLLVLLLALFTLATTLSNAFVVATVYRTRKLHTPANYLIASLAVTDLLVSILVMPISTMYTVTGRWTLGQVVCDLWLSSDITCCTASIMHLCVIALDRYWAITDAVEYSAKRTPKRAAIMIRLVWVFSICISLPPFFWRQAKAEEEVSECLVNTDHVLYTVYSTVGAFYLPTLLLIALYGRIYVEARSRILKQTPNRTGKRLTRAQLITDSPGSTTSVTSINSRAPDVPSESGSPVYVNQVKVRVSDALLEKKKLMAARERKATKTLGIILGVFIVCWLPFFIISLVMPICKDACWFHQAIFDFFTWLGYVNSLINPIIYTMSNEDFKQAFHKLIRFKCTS
Description: Tissues were obtained from male New Zealand White rabbits (c. 3-4 kg) which were sacrificed by an overdose of pentobarbitol. The saphenous veins from both the left and right side were cleaned of fat and connective tissue and placed in Krebs solution (118 mM NaCl, 11 mM glucose, 25 mM NaHCO3, 4,7 mM KCl, 2.5 mM CaCl2 2H2 O, 1.2 mM KH2 PO4 and 1.2 mM MgSO4 7H2 O). Ring segments of the vein (4-5 mm in length) were cut and the endothelium gently removed. The segments were mounted in 10 mL baths containing Krebs buffer and were constantly aerated with 95% oxygen/5% carbon dioxide and maintained at 37° C. and pH 7.4 in order to record the isometric tension. A resting tension of 2.5 g was applied and the tissues allowed to equilibrate for 90 minutes, with washing every 15-20 minutes. After the equilibrium period, the rings were depolarized by addition of two aliquots of KCl (80 mM final concentration)separated by a 20 minute washing period. The tissues were then exposed to prazosin, idazoxan and indomethacin (all 1 μM in final concentration) for 30 minutes in order to exclude the actions of α1 - and α2 -adrenergic receptors and prostaglandin receptors respectively. […] Responses were calculated as a percentage of the maximal contraction evoked by 80 mM KCl. Only one compound was tested per preparation.
EC50 represents the concentration of the compound which causes 50% of the maximum contraction effected by it.

[4] = tested on: 5-HT1 receptor; conditions: WO 93/21178, Example 67; cited from earlier work
[5] = tested on: 5-HT1F; conditions: prior art; cited from earlier work
[6] = tested on: 5-HT1D; conditions: prior art; cited from earlier work
[7] = tested on: other 5-HT receptors; conditions: prior art; cited from earlier work
[8] = rabbit isolated saphenous vein, 50% of the maximum contraction effected by the compound, with prazosin, idazoxan, indomethacin 1 μM, read-out: EC50

T1 sequence (P28221 whole entry): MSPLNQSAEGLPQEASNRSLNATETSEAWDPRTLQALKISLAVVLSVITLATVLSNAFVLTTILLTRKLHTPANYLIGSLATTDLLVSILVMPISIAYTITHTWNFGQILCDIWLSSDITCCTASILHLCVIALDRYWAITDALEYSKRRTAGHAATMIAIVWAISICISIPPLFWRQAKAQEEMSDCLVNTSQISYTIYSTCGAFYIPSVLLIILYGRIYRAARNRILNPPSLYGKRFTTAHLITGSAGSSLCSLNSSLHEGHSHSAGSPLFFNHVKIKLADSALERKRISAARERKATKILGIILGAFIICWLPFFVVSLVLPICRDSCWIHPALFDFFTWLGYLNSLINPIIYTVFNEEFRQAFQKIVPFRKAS

SMILES	inhibition at 0.1 µM [1]	inhibition at 0.1 µM [2]	EC50 [3, 8]	also measured
CN1CCC(c2c[nH]c3ccc(-c4cccs4)cc23)C1 (racemic) [Compound 8, 3-(N-Methylpyrrolidin-3-yl)-5-(2-thienyl)-1H-indole]	95%	68%	1730 nM	
CN(C)CC(O)c1c[nH]c2ccc(-c3ccsc3)cc12 (racemic) [Compound 10, (±)-3-(2-N,N-Dimethylamino-1-hydroxylethyl)-5-(3-thienyl)-1H-indole]	93%	42%	888 nM	
CN1CCC[C@@H]1Cc1c[nH]c2ccc(-c3ccc(C(N)=O)s3)cc12 [5-(5-carbamoyl-2-thienyl)-3-(1-methylpyrrolidin-2(R)-ylmethyl)-1H-indole]				5-HT1 receptor activity [4]: some 5-HT1 receptor activity
CN1CCC[C@@H]1Cc1c[nH]c2ccc(-c3cccs3)cc12 [Compound 1, 3-(N-Methylpyrrolidin-2R-ylmethyl)-5-(2-thienyl)-1H-indole]	98%	84%	121 nM	
CN1CCC[C@@H]1Cc1c[nH]c2ccc(-c3ccsc3)cc12 [Compound 2, 3-(N-Methylpyrrolidin-2R-ylmethyl)-5-(3-thienyl)-1H-indole]	99%	83%	140 nM	
CN(C)CCc1c[nH]c2ccc(-c3ccsc3)cc12 [Compound 3, 3-(2-N,N-Dimethylaminoethyl)-5-(3-thienyl)-1H-indole]	98%	78%	432 nM	
CN(C)CCc1c[nH]c2ccc(-c3cccs3)cc12 [Compound 4, 3-(2-N,N-Dimethylaminoethyl)-5-(2-thienyl)-1H-indole]	97%	72%	806 nM	
CN(C)CCc1c[nH]c2ccc(-c3ccc(CO)s3)cc12 [Compound 5, 3-(2-N,N-Dimethylaminoethyl)-5-(5-hydroxymethylthienyl-2-yl)-1H-indole]	96%	77%		
CN1CCC[C@H]1Cc1c[nH]c2ccc(-c3cccs3)cc12 [Compound 6, 3-(N-Methylpyrrolidin-2S-ylmethyl)-5-(2-thienyl)-1H-indole]	96%	47%	873 nM	
NCCc1c[nH]c2ccc(-c3cccs3)cc12 [Compound 7, 3-(2-Aminoethyl)-5-(2-thienyl)-1H-indole]	98%	78%	607 nM	
CN(C)CCc1c[nH]c2ccc(-c3ccc(Cl)s3)cc12 [Compound 9, 5-(5-Chlorothien-2-yl)-3-(2-N,N-dimethylaminoethyl)-1H-indole]	97%	83%		
c1csc(-c2ccc3[nH]cc(CCN4CCCC4)c3c2)c1 [Compound 11, 3-(2-Pyrrolidinylethyl)-5-(2-thienyl)-1H-indole]	84%	14%		EC50 [3]: 2340 nM; Emax ([3]; rabbit isolated saphenous vein, maximum contraction vs KCl (80 mM), read-out: agonist type (maximum contraction relative to 80 mM KCl)): < 60%
Cc1ccc(-c2ccc3[nH]cc(CCN(C)C)c3c2)s1 [Compound 12, 3-(2-N,N-Dimethylaminoethyl)-5-(5-methylthien-2-yl)-1H-indole]	87%	52%		
CNS(=O)(=O)Cc1ccc2[nH]cc(CCN(C)C)c2c1 [Sumatriptan]	95%			binding affinity for 5-HT1F [5]: high affinity; binding affinity for 5-HT1D [6]: high affinity; binding to other 5-HT receptors [7]: substantial exclusion of other 5-HT receptors
